Measured values published in publication PMC10636063, “Progesterone activation of β1-containing BK channels involves two binding sites” (Nature Communications, 2023).
Where “and” joins values, the source holds several entries; their conditions need not be identical. Equal values may be shown once.

Columns and labels:
[1] = target: T1, cbv1+β1Y42V (Rattus norvegicus, UniProt P97678, Y42V); test: Channel activity (NPo) in POPE/POPS bilayers, cbv1+β1Y42V; format: biochemical
T1 construct: made in house; host or cells: CHO cells, transient transfection; sucrose-gradient membrane preparation
Description: (§1) BK channel-forming slo1 cDNA (cbv1 isoform; AY330293) was cloned from rat cerebral artery SM cells, and inserted into pcDNA3.1 vector as described. BK β1 cDNA (KCNMB1 product; NP_011452; FJ154955) were isolated from rat cerebral artery SM cells and cloned as described. β4 cDNA (KCNMB4; NP_055320; AY028605) were generously provided by Dr. Ligia Toro. CHO cells were transiently transfected with cbv1 ± β1-, or β4-carrying pcDNA3.1 using X-tremeGENE HP (Sigma-Aldrich). […]
(§2) Proteins for electrophysiological recordings in artificial lipid bilayers remained untagged. […] BK channel-mediated ionic current was recorded in planar lipid bilayers consisting of a POPE:POPS 3:1 (w/w) mixture. […]
(§3) Patch-clamp and bilayer data were analyzed using Clampfit 10.7 software (Molecular Devices). […] Drug-induced NPo changes were determined by comparing baseline NPo (i.e., NPo with the patch/cell perfused with bath solution) to the NPo from the same patch/cell exposed to the agent under study (DMSO/PROG/oxime) dissolved in bath solution. NPo and mean open time values were automatically calculated using Clampfit 10.7, the latter using a 50% threshold detection event.

[2] = system: BK channel, construct not given; test: Channel activity (NPo) time course, Fig 4E block headed only '10 uM PROG'; format: biochemical
[3] = target: T2, cbv1+β1W163I (Rattus norvegicus, UniProt P97678, W163I); test: Channel activity (NPo) in POPE/POPS bilayers, cbv1+β1W163I; format: biochemical; settings: for normalized NPo, time course Fig 2E: W163I PROG
T2 construct: made in house; host or cells: CHO cells, transient transfection; sucrose-gradient membrane preparation
Description: BK channel-forming slo1 cDNA (cbv1 isoform; AY330293) was cloned from rat cerebral artery SM cells, and inserted into pcDNA3.1 vector as described. BK β1 cDNA (KCNMB1 product; NP_011452; FJ154955) were isolated from rat cerebral artery SM cells and cloned as described. β4 cDNA (KCNMB4; NP_055320; AY028605) were generously provided by Dr. Ligia Toro. CHO cells were transiently transfected with cbv1 ± β1-, or β4-carrying pcDNA3.1 using X-tremeGENE HP (Sigma-Aldrich). Mutations to β1/4 cDNAs were conducted by Genscript, with sequences being confirmed to be >99% identical to KCNMB1 product; NP_011452 or β4 KCNMB4; NP_055320; respectively. β1/4 and mutant constructs were flag-tagged (DYKDDDDK-tag) by Genscript services for subsequent immunoprecipitation and use in microscale thermophoresis studies.
Proteins for electrophysiological recordings in artificial lipid bilayers remained untagged. Cells were transiently transfected as described above, pelleted and re-suspended on ice in 10 ml of buffer solution of the following composition (mM): 30 KCl, 2 MgCl2, 10 HEPES, 5 EGTA; pH 7.2. A membrane preparation was obtained using a sucrose gradient as described. Aliquots were stored at −80 °C. BK channel-mediated ionic current was recorded in planar lipid bilayers consisting of a POPE:POPS 3:1 (w/w) mixture. Lipid mixtures were dried under N2 and re-suspended in 25 mg/ml of n-decane BK currents following incorporation into horizontal bilayers at 300/30 mM cis/trans gradient as detailed elsewhere. Ion currents were obtained during a 10-min gap-free recording at 0 mV in the presence of 0.01, 10 μM PROG, 10 μM PROG-oxime, or vehicle control (dimethyl sulfoxide; DMSO). Currents were obtained in gap-free mode using a Warner BC-525D amplifier, low pass-filtered at 1 kHz and sampled at 5 kHz with Digidata 1550B/pCLAMP 11 (Molecular Devices). For comparison with previous data from us[16],[17],[45]–[47], studies were conducted at 20–22 °C. PROG stock, oxime stock or vehicle control (DMSO) was added to the bilayer cis chamber to reach final concentrations (0.01–10 µM), with all compounds being dissolved with the same concentration of DMSO (0.1%); n = 5–10 for each group.
Patch-clamp and bilayer data were analyzed using Clampfit 10.7 software (Molecular Devices). NPo was used as an index of channel steady-state activity where N = number of channels in the patch (defined as a maximal number of opening levels at Po≤1) and Po=single channel open probability. Drug-induced NPo changes were determined by comparing baseline NPo (i.e., NPo with the patch/cell perfused with bath solution) to the NPo from the same patch/cell exposed to the agent under study (DMSO/PROG/oxime) dissolved in bath solution. NPo and mean open time values were automatically calculated using Clampfit 10.7, the latter using a 50% threshold detection event.

[4] = system: de-endothelialized MCA segments of KCNMB1-/- mice permeabilized with β1 constructs; test: Cerebral artery diameter in vitro, KCNMB1-/- MCA permeabilized with β1 constructs; set-up: species or system mouse; settings: 10 µM; W87F, Y32V or W163I constructs
Description: Eight-12 week-old C57BL/6J and KCNMB1^−/− on C57BL/6 background mice of both sexes were deeply anesthetized with isoflurane via inhalation in a tightly sealed jar. […] For de-endothelialized records, the endothelium was removed by passing an air bubble into the vessel lumen for 90 s[30]. This method has been consistently used by our group and validated using endothelium-dependent versus endothelium-independent vasodilators[16],[26]. Arteries were cannulated as previously described by our group[26],[40]. […] PSS was continuously bubbled with an O2/CO2/N2 (21/5/74%) gas mixture and maintained at 35–37 °C. The artery external wall diameter was measured using the automatic edge-detection function of lonWizard software (lonOptix) via Sanyo VCB-3512T camera (Sanyo Electric Co.). Arteries were first incubated at an intravascular pressure of 10 mm Hg for 10 min. Then intravascular pressure was increased to 60 mmHg and held steady throughout the experiment to induce myogenic tone development and maintenance[19],[30],[51]. […] To determine arterial viability, arterial contractility was probed with a high KCl solution at the end of each experiment. […] Like PSS, the high-KCl solution was continuously bubbled with O2/CO2/N2 (21/5/74%) gas mixture and maintained at 35–37 °C. […]

[5] = target: T3, cbv1+β1Y32F (Rattus norvegicus, UniProt P97678, Y32F); test: Channel activity (NPo) in POPE/POPS bilayers, cbv1+β1Y32F; format: biochemical
T3 construct: made in house; host or cells: CHO cells, transient transfection; sucrose-gradient membrane preparation
Description: as §1, §2, §3

[6] = time 1 min (normalisation reference)

T1 sequence (P97678 whole entry Y42V): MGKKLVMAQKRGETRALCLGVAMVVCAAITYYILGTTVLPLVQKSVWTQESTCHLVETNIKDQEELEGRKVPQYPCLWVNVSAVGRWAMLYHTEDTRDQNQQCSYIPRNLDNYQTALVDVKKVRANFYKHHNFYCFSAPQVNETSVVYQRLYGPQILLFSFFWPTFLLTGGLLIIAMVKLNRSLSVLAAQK
T1 sequence (Q62976 1-1148 isoform Q62976-2 partner): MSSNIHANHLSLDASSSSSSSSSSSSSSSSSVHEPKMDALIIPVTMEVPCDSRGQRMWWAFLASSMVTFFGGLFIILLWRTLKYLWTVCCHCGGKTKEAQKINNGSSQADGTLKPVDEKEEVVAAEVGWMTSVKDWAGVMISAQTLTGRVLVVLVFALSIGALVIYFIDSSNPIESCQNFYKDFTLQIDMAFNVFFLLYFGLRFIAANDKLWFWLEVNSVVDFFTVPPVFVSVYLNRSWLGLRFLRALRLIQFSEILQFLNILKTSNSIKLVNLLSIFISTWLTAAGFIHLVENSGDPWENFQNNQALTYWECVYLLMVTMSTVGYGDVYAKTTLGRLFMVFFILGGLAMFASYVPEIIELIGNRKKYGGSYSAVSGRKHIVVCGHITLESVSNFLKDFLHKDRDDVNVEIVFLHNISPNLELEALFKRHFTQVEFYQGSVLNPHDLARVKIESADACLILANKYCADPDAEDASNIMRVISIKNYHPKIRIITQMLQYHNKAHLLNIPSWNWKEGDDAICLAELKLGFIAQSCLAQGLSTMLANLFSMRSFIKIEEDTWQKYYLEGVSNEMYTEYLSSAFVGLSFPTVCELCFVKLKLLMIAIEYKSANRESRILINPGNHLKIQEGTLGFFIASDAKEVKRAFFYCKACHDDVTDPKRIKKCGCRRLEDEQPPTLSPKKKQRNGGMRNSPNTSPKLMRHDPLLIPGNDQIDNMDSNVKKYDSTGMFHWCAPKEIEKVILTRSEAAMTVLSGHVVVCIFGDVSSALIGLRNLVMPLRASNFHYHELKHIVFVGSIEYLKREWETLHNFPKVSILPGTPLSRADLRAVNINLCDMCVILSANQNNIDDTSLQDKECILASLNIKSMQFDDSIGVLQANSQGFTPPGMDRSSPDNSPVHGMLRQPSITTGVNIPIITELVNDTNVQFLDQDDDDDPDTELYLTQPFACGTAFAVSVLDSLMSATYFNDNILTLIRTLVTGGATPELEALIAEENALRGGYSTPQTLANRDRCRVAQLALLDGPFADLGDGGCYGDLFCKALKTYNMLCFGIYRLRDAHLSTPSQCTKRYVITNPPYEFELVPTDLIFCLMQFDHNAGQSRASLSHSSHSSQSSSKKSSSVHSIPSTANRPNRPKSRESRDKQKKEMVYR
T2 sequence (P97678 whole entry W163I): as the sequence (P97678 whole entry Y42V) above, with V42Y, W163I counted along it
T2 sequence (Q62976 1-1148 isoform Q62976-2 partner): as the sequence (Q62976 1-1148 isoform Q62976-2 partner) above
T3 sequence (P97678 whole entry Y32F): as the sequence (P97678 whole entry Y42V) above, with Y32F, V42Y counted along it
T3 sequence (Q62976 1-1148 isoform Q62976-2 partner): as the sequence (Q62976 1-1148 isoform Q62976-2 partner) above

In the case of `CC(=O)[C@H]1CC[C@H]2[C@@H]3CCC4=CC(=O)CC[C@]4(C)[C@H]3CC[C@]12C` [PROG, Progesterone], the “action on channel activity (NPo)” value ([1]; 10 µM, vs DMSO) is reported as “significantly activated”, the “channel activity (NPo) with prog, normalized” value ([1]; SFig3A, cbv1+y42v, individual bilayers) is reported as 1.4717 and 1.041 and 1.9292 and 1.306 and 1.182 and the “normalized NPo, time course Fig 4E” value [2, 6] is reported as 1. The “normalized NPo, time course Fig 4E” value ([2]; time 2 min) was 0.9853 and 1 and 0.9322 and 1.014 and 0.7178, the “normalized NPo, time course Fig 4E” value ([2]; time 4 min) was 1.015 and 1.069 and 1.029 and 1.047 and 1.067 and the “normalized NPo, time course Fig 4E” value ([2]; time 5 min) was 1.11 and 1.053 and 1.066 and 1.023 and 1.182. The “normalized NPo, time course Fig 4E” value ([2]; time 6 min) was 1.088 and 1.041 and 1.129 and 1.028 and 1.207, the “normalized NPo, time course Fig 4E” value ([2]; time 7 min) was 1.162 and 1.118 and 1.064 and 0.8935 and 1.1318 and the “normalized NPo, time course Fig 4E” value ([2]; time 8 min) was 1.096 and 1.061 and 1.045 and 1.148 and 1.63. For the same compound, the “normalized NPo, time course Fig 4E” value ([2]; time 10 min) was 1.11 and 0.7114 and 1.049 and 1.394 and 1.416, the “action on channel activity (NPo)” value ([3]; 10 µM, vs DMSO) was “effectively abolished PROG action” and the “normalized NPo, time course Fig 2E” value [3, 6] was 1. For the same compound, the “normalized NPo, time course Fig 2E” value ([3]; time 2 min) was 0.8408 and 0.8822 and 1.039 and 0.6048 and 0.9835, the “normalized NPo, time course Fig 2E” value ([3]; time 6 min) was 0.9156 and 1.236 and 1.01 and 0.7339 and 0.9865 and the “normalized NPo, time course Fig 2E” value ([3]; time 7 min) was 1.033 and 1.222 and 0.6583 and 1.166. The “normalized NPo, time course Fig 2E” value ([3]; time 8 min) was 0.9156 and 0.8317 and 0.9282 and 1.117, the “normalized NPo, time course Fig 2E” value ([3]; time 9 min) was 1.0966 and 0.7071 and 0.5738 and 1.067 and the “normalized NPo, time course Fig 2E” value ([3]; time 10 min) was 1.291 and 0.8215 and 0.6728 and 1.157. For the same compound, the “vasoactive response of MCA segments” value [4] was “failed to dilate MCA segments”, the “action on channel activity (NPo)” value ([5]; 10 µM, vs DMSO) was “significantly activated” and the “channel activity (NPo) with prog, normalized” value ([5]; SFig3A, cbv1+y32f, individual bilayers) was 3.7931 and 1.379 and 2.626 and 0.9886 and 1.589.
